The values below come from patent US20030108872A1, “Genomics-assisted rapid identification of targets” (priority 2000, published 2003).

Format in all cases: cell-based
Test [1] concerns cells in which folA is regulated by PBAD, PLtetO-1, or Plac/ara-1. Nature of the test: MIC by microbroth dilution in E. coli under-expressing folA. The note with it: for MIC with decreasing regulator level: PLtetO-1 or Plac/ara-1, regulators L-arabinose, anhydrotetracycline, IPTG, FIG. 3. How it is done: In another example, the wild-type native folA gene was knocked out, and a wild-type copy of the gene folA, which encodes the protein dihydrofolate reductase, was placed under ectopic expression in the yibD locus under regulation by PBAD with the regulator, L-arabinose. Dihydropteroate synthetase, the gene product of […], catalyzes the enzymatic reaction two steps before dihydrofolate reductase in the folate biosynthetic pathway.
(§1) Methods. […] IPTG was added to a final concentration of 0.1 mM and anhydrous-tetracycline was added to a final concentration of 100 ng/ml to the culture media for routine growth of GTC-EC#313 and GTC-EC#346, respectively.
(§2) The specificity and sensitivity of the resultant colonies to added drugs were followed by measuring the minimal inhibitory concentration (MIC) of trimethoprim, sulfamethozasone, phosphomycin and D-cycloserine at varying regulator levels. This was performed according to NCCLS (National Center for Clinical Laboratory Standards) recommendations(NCCLS, 1997, METHODS FOR DILUTION ANTIMICROBIAL SUSCEPTIBILITY TESTS FOR BACTERIA THAT GROW AEROBICALLY, 4th ed.; approved standard. NCCLS document M7-A4. NCCLS, Wayne, Pa.), in 100 μl volume in 96-well format, with serial two-fold dilutions of drug concentration.
(Dilution methods test growth across graded concentrations, often in twofold steps.)

The test system of test [2] is cells in which murA is regulated by PBAD. The test can be described thus: MIC by microbroth dilution in E. coli under-expressing murA. The note with it: for MIC with decreasing regulator (L-arabinose) level: FIG. 4; for sensitivity on under-expression of murA: FIG. 6. How it is done: The wild-type gene murA, which encodes the enzyme UDP-N-acetylglucosamine enolpyruvate transferase, was knocked out in E. coli, and the gene was placed under ectopic expression in the yibD locus under regulation by PBAD with the regulator, L-arabinose.
as §1, §2

For test [3], the system named is B. subtilis NO-347 (BD170 thrC::Pspac-murA kanR ΔmurA::CmR). The test can be described thus: MIC by microbroth dilution in B. subtilis under-expressing murA. The note with it: IPTG 0-0.1 mM, compared to the control strain, FIG. 10. The procedure: Materials and Methods. The materials are the same as discussed above. Plasmids are listed in Table 4 B. subtilis strains were routinely grown in LB media or on LB agar plates containing 1.5% agar (Sambrook et al., MOLECULAR CLONING: A LABORATORY MANUAL, 2nd ed., Cold Spring Harbor Laboratory Press, 1989). MIC determination is performed using microbroth dilution-cultures grown in Mueller Hinton broth in 96-well microtiter plates purchased from Nunc (Plates—Cat. No. 262162; Lids—Cat. No. 264122). When required, media were supplemented with 5 μg/ml chloramphenicol or 10 μg/ml kanamycin. IPTG was added to culture media at a final concentration of 0.05 mM for routine culture growth of B. subtilis NO-347 (BDI70 thrC::Pspac-murA kan^R ΔmurA::Cm^R), which is dependent on IPTG for growth.
The endogenous murA gene in NO-360 was deleted by allelic replacement as follows (see FIG. 9). DNA fragments flanking the 5′ and 3′ ends of the murA gene were amplified from B. subtilis 168 genomic DNA using primer pairs KO mura F1+R2 and KO murA F2+R1, respectively. The 5′ and 3′ flanking fragments were linked to the Cm^R gene from pEVP3 using the cross-over PCR technique with the primer pair KO mura F1+R1. The resulting PCR product (shown in FIG. 9B) was used to transform naturally competent B. subtilis NO-360. Cm^R clones were selected in the presence of 0.01 mM and 0.05 mM IPTG. Allelic replacement of murA in Cm^R clones was verified by PCR. Strain NO-347 (BD170 thrC::Pspac-murA Kan^R ΔmurA::Cm^R) was chosen for MIC determinations for phosphomycin in presence of various concentrations of the regulator IPTG.
MIC determinations. Determination of minimum inhibitory concentration (MIC) for phosphomycin, novobiocin, erythromycin and trimethoprim lactate were performed in 96-well microliter plates using the microbroth dilution technique as described in NCCLS. 1997. Methods for dilution antimicrobial susceptibility tests for bacteria that grow aerobically-fourth edition; approved standard. NCCLS document M7-A4. NCCLS, Wayne, Pa. For MIC determinations using strain NO-347, various concentrations (0-0.1 mM) were added to the media. Growth was quantitated by OD600 measurements using a SpectroMax 250 plate reader (Molecular Devices).

Test [4] concerns E. coli MC1061, Ec211, Ec261, Ec239, Ec238. Nature of the test: Transformation selection: growth on drug plates of strains over-expressing folA or murA. The settings on record: for growth on MHB plates supplemented with drug: 5 μg/ml trimethoprim or 25 μg/ml phosphomycin, no L-arabinose, all strains, FIG. 15. From the text:
Methods. The genes folA, and murA were amplified from the genomic DNA of E. coli. Each gene was independently cloned in frame into pBAD/Myc-HisB vector, such that expression of the gene is under the regulation of the promoter PBAD. Hexahistidine encoding tags were incorporated into the 3′ end of the gene encoding the C-terminus of the protein through primer design. The construct introduced into the host cells of E. coli MC1061, resulting in Ec211 (construct with folA) and Ec261 (construct with murA).
The entire vector region (araC, PBAD, folA or murA, ampicillin resistance gene) of the above two constructs, but minus the origin, was PCR amplified through primer pairs homologous to regions flanking the origin. The PCR products were then linked at their 5′ ends to the 1 kb region upstream of yibD locus, and linked at their 3′ ends to the 1 kb region downstream of E. coli yibD locus (in effect, replacing yibD) by “crossover PCR” (Kim et al., 1996 Biotechniques 20: 954-5). The linear DNA product was gel purified and introduced into competent and recombinogenic MC1061. Recombinogenic ability was supplied by the red/gam function of plasmid pTP223.
Ec211, […], Ec238, Ec239, and MC1061 were freshly streaked onto Mueller Hinton Broth (MHB) plates. After an overnight incubation at 37° C., they were streaked into different segments onto different selection plates in the order of MHB supplemented with 5 μg/ml trimethoprim, MHB supplemented with 5 μg/ml trimethoprim and 0.1% L-arabinose, MHB supplemented with 25 μg/ml phosphomycin, MHB supplemented with 25 μg/ml phosphomycin and 0.1% L-arabinose, MHB supplemented with 0.1% L-arabinose, and finally plain MHB plates. The plates are 10 cm circular plates filled with 30 ml of media and divided into 6 equal segments. MC1061 was streaked in the first segment, Ec211 in second, Ec261 in third, Ec239 in fourth, Ec238 in fifth and the sixth segment was left blank.

For the molecule `COc1cc(Cc2cnc(N)nc2N)cc(OC)c1OC` [trimethoprim], in test [1] (FIG. 5), the “MIC with decreasing regulator (L-arabinose) level” value is “decreases”. Also, the “MIC with decreasing regulator level” value in test [1] is “decreases”. For the same molecule, in test [2], the “MIC with decreasing regulator (L-arabinose) level” value is on record as “relatively unchanged” and the “sensitivity on under-expression of murA” value is recorded as “not sensitive”. Further, in test [3], the “sensitivity (MIC) on regulated under-expression of murA” value is reported as “does not affect sensitivity”. The “growth on MHB plates with drug and L-arabinose (over-expression rescue)” value in test [4] (5 μg/ml trimethoprim and 0.1% L-arabinose, Ec211 (multiple copies of folA, PBAD)) was “the only strain that grew up”. The “growth on MHB plates supplemented with drug” value in test [4] is reported as “Nothing grew”.
As to `C[C@@H]1O[C@@H]1P(=O)(O)O` [phosphomycin], the “MIC with decreasing regulator level” value in test [1] is on record as “relatively unchanged”. In test [2], the “MIC with decreasing regulator (L-arabinose) level” value is given as “decreases” and the “sensitivity on under-expression of murA” value is recorded as “hypersensitivity”. Besides, in test [3], the “sensitivity (MIC) on regulated under-expression of murA” value is reported as “increased sensitivity”. Further, in test [4], the “growth on MHB plates supplemented with drug” value is recorded as “Nothing grew”. Further, in test [4] (25 μg/ml phosphomycin and 0.1% L-arabinose, Ec261 (multiple copies of murA) and Ec238 (two copies of murA)), the “growth on MHB plates with drug and L-arabinose (over-expression rescue)” value is “grew up”.
